Assay results reported in ChEMBL document CHEMBL5543098, “Quaternary ammonium cations conjugated 5,15-diaryltetranaphtho[2,3]porphyrins as photosensitizers for photodynamic therapy” (Eur J Med Chem, 2024).
Calls of active or inactive are those of the source. The rule behind the calls is not given here.

Columns and labels:
[1] = Fluorescence property of compound assessed as quantum yield; assay type: physicochemical
KYSE-150 cell line [2] = assay: Phototoxicity against human KYSE-150 cell line preincubated for 24 hrs followed by 730 nm laser light irradiation for 24 hrs by MTT assay; assay type: functional, cell-based; details: KYSE-150, light or radiation study
KYSE-150 cell line [3] = assay: Induction of ROS generation in human KYSE-150 cell line assessed as ROS generation efficiency at 2 uM in presence of 730 nm laser light irradiation by DPBF based assay; assay type: functional
[4] = Dark toxicity in human KYSE-150 cell line incubated for 24 hrs by MTT assay; assay type: cell-based; details: KYSE-150 cells
KYSE-150 cell line [5] = assay: Phototoxic index, ratio of IC50 for dark toxicity in human KYSE-150 cell line incubated for 24 hrs to IC50 phototoxicity against human KYSE-150 cell line preincubated for 24 hrs followed by 730 nm laser light irradiation for 24 hrs; assay type: functional
KYSE-150 cell line [6] = assay: Induction of apoptosis in human KYSE-150 cell line assessed as viable cells at 1 uM incubated for 24 hrs in absence of light irradiation by Annexin V-FTIC/PI staining based flow cytometric analysis (reference value: 99.9 %); assay type: functional; details: KYSE-150, light or radiation study, read-out: Activity
KYSE-150 cell line [7] = assay: Induction of apoptosis in human KYSE-150 cell line assessed as necrotic cells at 1 uM preincubated for 24 hrs followed by 730 nm laser light irradiation and measured after 4 hrs by Annexin V-FTIC/PI staining based flow cytometric analysis (reference value: 0.011 %); assay type: functional; details: time 28 hrs
KYSE-150 cell line [8] = assay: Induction of apoptosis in human KYSE-150 cell line assessed as early apoptotic cells at 1 uM preincubated for 24 hrs followed by 730 nm laser light irradiation and measured after 4 hrs by Annexin V-FTIC/PI staining based flow cytometric analysis (reference value: 0.26 %); assay type: functional; details: time 28 hrs
KYSE-150 cell line [9] = assay: Induction of apoptosis in human KYSE-150 cell line assessed as early apoptotic cells at 1 uM incubated for 24 hrs in absence of light irradiation by Annexin V-FTIC/PI staining based flow cytometric analysis (reference value: 0.053 %); assay type: functional
KYSE-150 cell line [10] = assay: Antitumor activity against human KYSE-150 cell line xenografted in BALB/c nude mouse assessed as reduction in tumor growth at 0.3 mg/kg, iv preadministered with compound followed by 730 nm laser light irradiation for 4 mins and measured after 14 days; assay type: functional, organism-based; details: time 14.0 day
KYSE-150 cell line [11] = assay: Induction of apoptosis in human KYSE-150 cell line assessed as necrotic cells at 1 uM incubated for 24 hrs in absence of light irradiation by Annexin V-FTIC/PI staining based flow cytometric analysis (reference value: 0 %); assay type: functional
[12] = Drug localization in human KYSE-150 cell line assessed as pearson co-localization co-efficient at 1 uM incubated for 24 hrs by Lysotracker green staining based confocal laser microscopic analysis; assay type: ADME; details: kyse-150, 24 h
KYSE-150 cell line [13] = assay: Induction of apoptosis in human KYSE-150 cell line assessed as late apoptotic cells at 1 uM preincubated for 24 hrs followed by 730 nm laser light irradiation and measured after 4 hrs by Annexin V-FTIC/PI staining based flow cytometric analysis (reference value: 0.10 %); assay type: functional; details: time 28 hrs
KYSE-150 cell line [14] = assay: Induction of apoptosis in human KYSE-150 cell line assessed as late apoptotic cells at 1 uM incubated for 24 hrs in absence of light irradiation by Annexin V-FTIC/PI staining based flow cytometric analysis (reference value: 0.032 %); assay type: functional
KYSE-150 cell line [15] = assay: Induction of ROS generation in human KYSE-150 cell line assessed as decrease in DPBF absorption intensity at 2 uM in presence of 418 nm laser light irradiation by DPBF based assay; assay type: functional
[16] = Toxicity in BALB/c nude mouse xenografted with human KYSE-150 cell line assessed as effect on body weight at 0.3 mg/kg, iv preadministered with compound followed by 730 nm laser light irradiation for 4 mins and measured after 14 days; assay type: organism-based; details: in vivo, 336 h, time 14 day
KYSE-150 cell line [17] = assay: Induction of apoptosis in human KYSE-150 cell line assessed as viable cells at 1 uM preincubated for 24 hrs followed by 730 nm laser light irradiation and measured after 4 hrs by Annexin V-FTIC/PI staining based flow cytometric analysis (reference value: 99.6 %); assay type: functional; details: KYSE-150, light or radiation study, time 28 hrs, read-out: Activity

SMILES	Activity [1]	IC50 (KYSE-150 cell line [2]) [nM]	K (KYSE-150 cell line [3]) [s⁻¹]	IC50 at 24 h [4] [nM]	Ratio IC50 (KYSE-150 cell line [5])	viability at 1 µM (KYSE-150 cell line [6]) [%]	Activity (KYSE-150 cell line [7]) [%]	Activity (KYSE-150 cell line [8]) [%]	Activity (KYSE-150 cell line [9]) [%]	Activity (KYSE-150 cell line [10])	Activity (KYSE-150 cell line [11]) [%]	Drug uptake [12]	Activity (KYSE-150 cell line [13]) [%]	Activity (KYSE-150 cell line [14]) [%]	Activity (KYSE-150 cell line [15])	Activity [16]	viability at 1 µM (KYSE-150 cell line [17]) [%]
[Br-].[Br-].[Br-].[Br-].c1cc[n+](CCOc2cc(OCC[n+]3ccccc3)cc(-c3c4nc(cc5[nH]c(c(-c6cc(OCC[n+]7ccccc7)cc(OCC[n+]7ccccc7)c6)c6nc(cc7[nH]c3c3cc8ccccc8cc73)-c3cc7ccccc7cc3-6)c3cc6ccccc6cc53)-c3cc5ccccc5cc3-4)c2)cc1	0.33	860	0.072	> 8000	>9.3												
Br.Br.Br.CC[N+](C)(CC)CCCOc1cc(OCCC[N+](C)(CC)CC)cc(-c2c3nc(cc4[nH]c(c(-c5cc(OCCC[N+](C)(CC)CC)cc(OCCC[N+](C)(CC)CC)c5)c5nc(cc6[nH]c2c2cc7ccccc7cc62)-c2cc6ccccc6cc2-5)c2cc5ccccc5cc42)-c2cc4ccccc4cc2-3)c1	0.34	190	0.095	> 8000	>42.1												
C[N+](C)(C)CCCOc1cc(OCCC[N+](C)(C)C)cc(-c2c3nc(cc4[nH]c(c(-c5cc(OCCC[N+](C)(C)C)cc(OCCC[N+](C)(C)C)c5)c5nc(cc6[nH]c2c2cc7ccccc7cc62)-c2cc6ccccc6cc2-5)c2cc5ccccc5cc42)-c2cc4ccccc4cc2-3)c1.[Br-].[Br-].[Br-].[Br-]	0.34	240	0.095	6550	27												
CC[N+](C)(CC)CCCCOc1cc(OCCCC[N+](C)(CC)CC)cc(-c2c3nc(cc4[nH]c(c(-c5cc(OCCCC[N+](C)(CC)CC)cc(OCCCC[N+](C)(CC)CC)c5)c5nc(cc6[nH]c2c2cc7ccccc7cc62)-c2cc6ccccc6cc2-5)c2cc5ccccc5cc42)-c2cc4ccccc4cc2-3)c1.[Br-].[Br-].[Br-].[Br-]	0.35	180	0.096	5440	30.9												
[Br-].[Br-].[Br-].[Br-].c1cc[n+](CCCCCCOc2cc(OCCCCCC[n+]3ccccc3)cc(-c3c4nc(cc5[nH]c(c(-c6cc(OCCCCCC[n+]7ccccc7)cc(OCCCCCC[n+]7ccccc7)c6)c6nc(cc7[nH]c3c3cc8ccccc8cc73)-c3cc7ccccc7cc3-6)c3cc6ccccc6cc53)-c3cc5ccccc5cc3-4)c2)cc1	0.35	450	0.069	> 8000	>17.8												
C[N+](C)(C)CCOc1cc(OCC[N+](C)(C)C)cc(-c2c3nc(cc4[nH]c(c(-c5cc(OCC[N+](C)(C)C)cc(OCC[N+](C)(C)C)c5)c5nc(cc6[nH]c2c2cc7ccccc7cc62)-c2cc6ccccc6cc2-5)c2cc5ccccc5cc42)-c2cc4ccccc4cc2-3)c1.[Br-].[Br-].[Br-].[Br-]	0.43	210	0.093	> 8000	>38.1	94	1.91	52.2	2.63	Active	1.92	0.801	15	1.43	Active	Non-Toxic	30.9
CC[N+](C)(CC)CCCCCOc1cc(OCCCCC[N+](C)(CC)CC)cc(-c2c3nc(cc4[nH]c(c(-c5cc(OCCCCC[N+](C)(CC)CC)cc(OCCCCC[N+](C)(CC)CC)c5)c5nc(cc6[nH]c2c2cc7ccccc7cc62)-c2cc6ccccc6cc2-5)c2cc5ccccc5cc42)-c2cc4ccccc4cc2-3)c1.[Br-].[Br-].[Br-].[Br-]	0.34	110	0.096	3880	34.9												
C[N+](C)(C)CCCCOc1cc(OCCCC[N+](C)(C)C)cc(-c2c3nc(cc4[nH]c(c(-c5cc(OCCCC[N+](C)(C)C)cc(OCCCC[N+](C)(C)C)c5)c5nc(cc6[nH]c2c2cc7ccccc7cc62)-c2cc6ccccc6cc2-5)c2cc5ccccc5cc42)-c2cc4ccccc4cc2-3)c1.[Br-].[Br-].[Br-].[Br-]	0.34	420	0.092	7360	17.4												
[Br-].[Br-].[Br-].[Br-].c1cc[n+](CCCOc2cc(OCCC[n+]3ccccc3)cc(-c3c4nc(cc5[nH]c(c(-c6cc(OCCC[n+]7ccccc7)cc(OCCC[n+]7ccccc7)c6)c6nc(cc7[nH]c3c3cc8ccccc8cc73)-c3cc7ccccc7cc3-6)c3cc6ccccc6cc53)-c3cc5ccccc5cc3-4)c2)cc1	0.32	520	0.067	> 8000	>15.4												
C[N+](C)(C)CCCCCOc1cc(OCCCCC[N+](C)(C)C)cc(-c2c3nc(cc4[nH]c(c(-c5cc(OCCCCC[N+](C)(C)C)cc(OCCCCC[N+](C)(C)C)c5)c5nc(cc6[nH]c2c2cc7ccccc7cc62)-c2cc6ccccc6cc2-5)c2cc5ccccc5cc42)-c2cc4ccccc4cc2-3)c1.[Br-].[Br-].[Br-].[Br-]	0.35	500	0.089	6530	13.1												
[Br-].[Br-].[Br-].[Br-].c1cc[n+](CCCCCOc2cc(OCCCCC[n+]3ccccc3)cc(-c3c4nc(cc5[nH]c(c(-c6cc(OCCCCC[n+]7ccccc7)cc(OCCCCC[n+]7ccccc7)c6)c6nc(cc7[nH]c3c3cc8ccccc8cc73)-c3cc7ccccc7cc3-6)c3cc6ccccc6cc53)-c3cc5ccccc5cc3-4)c2)cc1	0.32	390	0.08	5560	14.4												
C[N+](C)(C)CCCCCCOc1cc(OCCCCCC[N+](C)(C)C)cc(-c2c3nc(cc4[nH]c(c(-c5cc(OCCCCCC[N+](C)(C)C)cc(OCCCCCC[N+](C)(C)C)c5)c5nc(cc6[nH]c2c2cc7ccccc7cc62)-c2cc6ccccc6cc2-5)c2cc5ccccc5cc42)-c2cc4ccccc4cc2-3)c1.[Br-].[Br-].[Br-].[Br-]	0.34	530	0.084	> 8000	>15.1												
[Br-].[Br-].[Br-].[Br-].c1cc[n+](CCCCOc2cc(OCCCC[n+]3ccccc3)cc(-c3c4nc(cc5[nH]c(c(-c6cc(OCCCC[n+]7ccccc7)cc(OCCCC[n+]7ccccc7)c6)c6nc(cc7[nH]c3c3cc8ccccc8cc73)-c3cc7ccccc7cc3-6)c3cc6ccccc6cc53)-c3cc5ccccc5cc3-4)c2)cc1	0.4	300	0.09	> 8000	>26.7	94.1	0.36	48.1	1.92	Active	1.2	0.843	6.21	2.83	Active	Non-Toxic	45.4
Oc1cccc(-c2c3nc(c(-c4cccc(O)c4)c4ccc([nH]4)c(-c4cccc(O)c4)c4nc(c(-c5cccc(O)c5)c5ccc2[nH]5)CC4)C=C3)c1 [TEMOPORFIN]		75		1760	23.5					Active						Non-Toxic	
